In PubChem BioAssay (NCI):
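Interpolation was linear, between the two tested concentrations surrounding the appropriate level; five concentrations were tested over 48 hours in 96-well plates. TGI marks complete inhibition of growth.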

What was measured:
Assay in all cases: NCI tumour cell line growth inhibition, 48 h
[1] = tested on: P388/ADR leukemia
[2] = tested on: SN12K1 renal
[3] = tested on: P388 leukemia
[4] = tested on: M19-MEL melanoma
[5] = tested on: SNB-78 CNS
[6] = tested on: HOP-18 NSCLC
[7] = tested on: RXF-631 renal
[8] = tested on: LXFL 529 NSCLC

Row | Structure (SMILES) | TGI [1] | TGI [2] | TGI [3] | TGI [4] | TGI [5] | TGI [6] | TGI [7] | TGI [8]
1 | OCC1OC(n2cnc3cncnc32)C(O)C1O (stereo unspecified) | 1.46 µM | 3.49 µM | 1.59 µM | 14.1 µM | 39.1 µM | 8.15 µM | – | –
2 | Nc1cccc2c1C(=O)c1cccc(N)c1C2=O | – | – | – | > 100 µM | > 100 µM | – | > 100 µM | > 100 µM
3 | Cc1ccc(C(C)(C)C[P+](C)(c2ccccc2)c2ccccc2)cc1 | > 100 µM | > 90.7 µM | 12.3 µM | > 89 µM | 88.1 µM | > 47.8 µM | – | –
4 | Cc1ccccc1-n1c(C)nc2c1C(=O)c1ccccc1C2=O | – | – | – | 48.5 µM | > 100 µM | – | – | –
5 | COC(=O)C1CCC(=O)N1C(=O)Cc1ccc(OC)cc1 (stereo unspecified) | – | – | – | > 100 µM | > 100 µM | – | – | > 100 µM
